From patent US6881719B2, “β-turn peptidomimetic cyclic compounds” (McGill University, priority 2000, dated 2005)

Key:
4-3.6 cells (p75+TrkA+) = assay: Cell survival (MTT), 4-3.6 cells; assay type: cell-based, rat; conditions: 72 hours;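 for % Protection: 100% equals survival with optimal NGF at 1 nM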
Text: (§1) The 4-3.6 cells are B104 cells stably transfected with human trkA cDNA, and express equal levels of p75 and TrkA (TrkA+ p75+). For screening agents that activate or antagonize TrkC receptors, NIH3T3 fibroblasts were stably transfected with human TrkC cDNA. These cells respond to the ligand NT-3. For screening agents that activate or antagonize TrkA receptors, NIH3T3 fibroblasts were stably transfected with human TrkA cDNA. These cells respond to the ligand NGF.
(§2) Cell lines: 5,000 cells/well in protein-free media (PFHM-II, GIBCO, Toronto) containing 0.2% bovine serum albumin (BSA) (Crystalline fraction V, Sigma, St. Louis, Mo.) were seeded in 96 well plates (Falcon, Mississauga, Ontario). The cultures were untreated, or treated with the indicated test or control ligands. Cell viability was quantitated using the MTT assay after 56-72 hours of culture. […] The OD of untreated cells were subtracted. The higher optical density of untreated primary cultures is likely due to cellular heterogeneity and to endogenous production of limiting amounts of growth factors.

[1] = target: T1, HEK 293 cells expressing TrkB/TrkA IgG-C2 chimeric receptor (Homo sapiens, UniProt P04629+Q16620); assay: Cell survival (MTT), HEK 293-TrkB/TrkA IgG-C2 chimera; assay type: cell-based; conditions: HEK 293-TrkB/TrkA chimera, 72 hours;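 for % Protection: 100% equals survival with optimal NGF at 1 nM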
T1 construct: The IgG-C2 domain of human TrkA was generated using unique restriction sites; expressed in transfected cells
Text: The IgG-C2 domain of human TrkA was generated using unique restriction sites in the primers to allow exchange with the corresponding rat TrkB domain. The chimeric receptors were constructed by subcloning the human TrkA IgG-C2 domain into the corresponding restriction sites of the rat trkB cDNA reported in a previous work (Perez et al., 1995). Chimeric constructs were confirmed by sequencing, and were cloned into the pCDNA3 expression vector that contains a selection gene providing resistance to neomycin (G418, GIBCO). HEK293 cells were transfected using the lipofectamine plus method (GIBCO), selected with neomycin (0.5 mg/ml) and at least 3 independent subclones were obtained by limiting dilution techniques (293-TrkB/A-IgC2 chimera).
as §2, with “subtracted.” for “subtracted. The higher optical density of untreated primary cultures is likely due to cellular heterogeneity and to endogenous production of limiting amounts of growth factors.”

TrkA-ECD = target: T2, TrkA-ECD (Homo sapiens, UniProt P04629); assay: ELISA competition of mAb 5C3 binding to immobilized TrkA-ECD; conditions: for % Binding of mAb 5C3 to TrkA-ECD: mAb 5C3 2 nM
T2 construct: pure soluble TrkA extracellular domain (TrkA-ECD) produced in baculovirus; made in house
Description: Direct binding studies: were done as described (Saragovi et al., 1998) using 6 ng/well of recombinant baculovirus TrkA-extracellular domain protein (TrkA-ECD) or control bovine serum albumin (BSA, Fraction V, Boehringer Mannheim) immobilized onto 96-well microtest plates. Wells were blocked with binding buffer (BB: PBS with 1% BSA) for 1 hour. Then, 50 ng/well of biotinylated D3 were added as primary reagent in BB for 40 min in the absence or presence of excess non-biotinylated D3 as competitor. Wells were washed 5 times with BB, and horseradish peroxidase (HRP)-coupled avidin (Sigma) was added as secondary reagent for 30 min. Plates were washed in BB, and peroxidase activity was determined colorimetrically using 2,2-azinobis (3-ethylbenzthiazoline sulfonic acid) (ABTS, Sigma). The optical density (OD) was measured at 414 nm in a Microplate reader (Bio-Rad). Assays were repeated at least three times, n=4.
Binding Competition: studies were as described for direct binding assays to TrkA-ECD, except that as primary reagent 50 ng anti-TrkA mAb 5C3/well were added in BB, in the presence or absence of D3 or controls as competitors as described (Saragovi et al., 1998). Wells were washed 5 times with BB, and HRP-coupled goat anti-mouse was added as secondary reagent for 30 min. Plates were washed in BB, and peroxidase activity were determined. Assays were repeated at least three times, n=4.

cell surface TrkA = target: T3, cell surface TrkA (Homo sapiens, UniProt P04629); assay: FACScan competition of mAb 5C3 binding on 4-3.6 cells; conditions: for % Maximal binding of mAb 5C3: mAb 1 nM
T3 construct: expressed in transfected cells
Text: as §1
FACScan binding assays: 4-3.6 cells (2×10^5) in FACScan binding buffer (PBS, 0.5% BSA, and 0.1% NaN3) were immunostained as described (Saragovi et al., 1998). Saturating anti-TrkA mAb 5C3, or anti-p75 mAb MC192, or control non-binding IgGs were added to cells for 1 hour at 4° C., in the presence or absence of D3 as competitor. Excess primary antibody was washed off, and cells were immunostained with fluorescinated goat-anti-mouse IgG secondary antibody. Cells were acquired on a FACScan and mean channel fluorescence of bell-shaped histograms were analyzed using the LYSIS II program.

septal neuronal cultures = assay: ChAT activity in septal neuronal cultures; assay type: cell-based, rat; conditions: day 8
Description: Cell cultures were established from the septal area of 17-day-old rat embryos. In brief, tissue was incubated in PBS containing trypsin and DNase. Tissue pieces then were mechanically dissociated. After centrifugation, the pellet was suspended in Leibovitz's L-15 medium. Cells were plated onto 96-multiwell NUNC dishes (10^5 cells/well) coated with poly-D-lysine (5 μg/ml). Pure cultures of septal neurons were treated 1 day after plating. Drugs, prepared in medium, were added directly to the cells without changing the initial medium. The incubation continued for 8 days, at which time ChAT activity was evaluated.
At day 8 of culture, the medium was aspirated, and ice-cold lysis buffer (10 mM sodium phosphate, pH 7.4/0.1% TritonX-100—Trade-mark) was added. ChAT activity assays were performed directly in the wells using Fonnum's method (Fonnum, 1975).

T1 sequence (P04629 299-365 limits assumed, change not shown, one chain of several): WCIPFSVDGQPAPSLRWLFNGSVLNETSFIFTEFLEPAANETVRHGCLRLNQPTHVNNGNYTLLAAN
T2 sequence (P04629 33-423 limits assumed): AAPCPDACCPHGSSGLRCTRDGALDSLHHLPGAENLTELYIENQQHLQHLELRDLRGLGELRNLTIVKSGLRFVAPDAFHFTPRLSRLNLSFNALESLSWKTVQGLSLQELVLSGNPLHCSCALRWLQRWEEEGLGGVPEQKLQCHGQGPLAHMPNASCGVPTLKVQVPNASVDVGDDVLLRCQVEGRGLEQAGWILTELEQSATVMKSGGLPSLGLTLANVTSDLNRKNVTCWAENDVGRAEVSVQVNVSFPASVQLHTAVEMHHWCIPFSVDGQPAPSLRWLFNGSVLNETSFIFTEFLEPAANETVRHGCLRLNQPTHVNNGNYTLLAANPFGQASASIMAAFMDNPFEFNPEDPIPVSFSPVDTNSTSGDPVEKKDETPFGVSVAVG
T3 sequence (P04629 33-796): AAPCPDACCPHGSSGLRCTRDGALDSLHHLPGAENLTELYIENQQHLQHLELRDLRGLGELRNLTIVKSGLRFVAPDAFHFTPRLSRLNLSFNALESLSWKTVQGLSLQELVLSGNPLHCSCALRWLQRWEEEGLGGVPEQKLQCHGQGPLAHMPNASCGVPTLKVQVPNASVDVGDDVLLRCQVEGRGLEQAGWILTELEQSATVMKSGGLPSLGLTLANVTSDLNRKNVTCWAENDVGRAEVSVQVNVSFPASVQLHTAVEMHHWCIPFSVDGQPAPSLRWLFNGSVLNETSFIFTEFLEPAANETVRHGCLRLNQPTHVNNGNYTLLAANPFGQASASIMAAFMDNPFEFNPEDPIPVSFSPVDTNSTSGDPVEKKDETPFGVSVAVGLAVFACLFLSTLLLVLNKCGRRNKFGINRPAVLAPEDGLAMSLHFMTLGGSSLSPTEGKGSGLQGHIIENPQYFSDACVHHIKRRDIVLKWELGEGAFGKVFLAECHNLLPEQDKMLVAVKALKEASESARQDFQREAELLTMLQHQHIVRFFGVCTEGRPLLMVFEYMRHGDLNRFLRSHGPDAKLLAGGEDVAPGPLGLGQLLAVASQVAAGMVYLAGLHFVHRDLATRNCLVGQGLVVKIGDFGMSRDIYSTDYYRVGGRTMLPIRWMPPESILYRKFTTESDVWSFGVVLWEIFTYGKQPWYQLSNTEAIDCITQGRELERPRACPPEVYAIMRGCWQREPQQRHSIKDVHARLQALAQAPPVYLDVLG

NCCCC[C@@H]1NC(=O)[C@H](CCC(=O)O)NC(=O)c2cc([N+](=O)[O-])ccc2OCCC(C(=O)NCC(=O)O)NC1=O (stereo partly drawn) [D3, EKHse-G-OH]
% Protection (4-3.6 cells (p75+TrkA+); compound 10 μM + 10 pM NGF): 55 ± 3%
Optical Density (4-3.6 cells (p75+TrkA+); compound 10 μM + 10 pM NGF): 255 ± 14
% Protection (4-3.6 cells (p75+TrkA+); compound 10 μM alone): 8 ± 2%
Optical Density (4-3.6 cells (p75+TrkA+); compound 10 μM alone): 95 ± 9
% Protection ([1]; compound 10 μM + 10 pM NGF): 42 ± 5%
Optical Density ([1]; compound 10 μM + 10 pM NGF): 165 ± 11
% Protection ([1]; compound 10 μM alone): 9 ± 3%
Optical Density ([1]; compound 10 μM alone): 69 ± 7
Kd (TrkA-ECD; calculated from the experimental IC50, read-out: Kd for D3•TrkA-ECD interactions): ~2000 nM
% Binding of mAb 5C3 to TrkA-ECD (TrkA-ECD; competitor 0.05 μM): 100 ± 14%
% Binding of mAb 5C3 to TrkA-ECD (TrkA-ECD; competitor 0.2 μM): 89 ± 8%
% Binding of mAb 5C3 to TrkA-ECD (TrkA-ECD; competitor 1 μM): 64 ± 10%
% Binding of mAb 5C3 to TrkA-ECD (TrkA-ECD; competitor 5 μM): 43 ± 12%
% Binding of mAb 5C3 to TrkA-ECD (TrkA-ECD; competitor 20 μM): 38 ± 7%
% Binding of mAb 5C3 to TrkA-ECD (TrkA-ECD; competitor 40 μM): 31 ± 4%
Kd (cell surface TrkA; estimated from experimental conditions, read-out: Kd for D3•TrkA interactions): ~2000 nM
IC50 (cell surface TrkA; intact 4-3.6 cells, on average, read-out: IC50, decrease of mAb 5C3•TrkA interactions): 4000 nM
% Maximal binding of mAb 5C3 (cell surface TrkA; competitor 0.20 μM): 95 ± 4%
% Maximal binding of mAb 5C3 (cell surface TrkA; competitor 1 μM): 80 ± 3%
% Maximal binding of mAb 5C3 (cell surface TrkA; competitor 5 μM): 53 ± 5%
% Maximal binding of mAb 5C3 (cell surface TrkA; competitor 40 μM): 33 ± 4%
ChAT Activity (septal neuronal cultures; compound 0.2 μM + 10 pM NGF): 0.60 ± 0.04 pmol Ach/min/well
Fold Increase (ChAT activity) (septal neuronal cultures; compound 0.2 μM + 10 pM NGF): 2.00
ChAT Activity (septal neuronal cultures; compound 0.2 μM alone): 0.37 ± 0.05 pmol Ach/min/well
Fold Increase (ChAT activity) (septal neuronal cultures; compound 0.2 μM alone): 1.23
ChAT Activity (septal neuronal cultures; compound 2 μM + 10 pM NGF): 0.76 ± 0.03 pmol Ach/min/well
Fold Increase (ChAT activity) (septal neuronal cultures; compound 2 μM + 10 pM NGF): 2.53
ChAT Activity (septal neuronal cultures; compound 2 μM alone): 0.44 ± 0.02 pmol Ach/min/well
Fold Increase (ChAT activity) (septal neuronal cultures; compound 2 μM alone): 1.47
ChAT Activity (septal neuronal cultures; compound 20 μM + 10 pM NGF): 0.79 ± 0.04 pmol Ach/min/well
Fold Increase (ChAT activity) (septal neuronal cultures; compound 20 μM + 10 pM NGF): 2.63
ChAT Activity (septal neuronal cultures; compound 20 μM alone): 0.48 ± 0.06 pmol Ach/min/well
Fold Increase (ChAT activity) (septal neuronal cultures; compound 20 μM alone): 1.56
